Assay results taken from patent publication US20200207734A1, “HETEROCYCLIC COMPOUND AND USE THEREOF” (Takeda Pharmaceutical Company Limited, priority 2017, published 2020).

Each compound was assayed against T1, human orexin type 2 receptor (Homo sapiens, UniProt O43614) (assay: Measurement of orexin type 2 receptor agonist activity (calcium fluorescence, CHO cells expressing hOX2R)). Conditions: test compound 3 μM; CHO cells expressing human OX2 receptor; DMSO = 0%, orexin A (human) = 100%.
T1 construct: human orexin type 2 receptor cDNA was inserted into pcDNA3.1(+) plasmid vector (Invitrogen); expressed in transfected cells
T1 sequence (O43614 1-444): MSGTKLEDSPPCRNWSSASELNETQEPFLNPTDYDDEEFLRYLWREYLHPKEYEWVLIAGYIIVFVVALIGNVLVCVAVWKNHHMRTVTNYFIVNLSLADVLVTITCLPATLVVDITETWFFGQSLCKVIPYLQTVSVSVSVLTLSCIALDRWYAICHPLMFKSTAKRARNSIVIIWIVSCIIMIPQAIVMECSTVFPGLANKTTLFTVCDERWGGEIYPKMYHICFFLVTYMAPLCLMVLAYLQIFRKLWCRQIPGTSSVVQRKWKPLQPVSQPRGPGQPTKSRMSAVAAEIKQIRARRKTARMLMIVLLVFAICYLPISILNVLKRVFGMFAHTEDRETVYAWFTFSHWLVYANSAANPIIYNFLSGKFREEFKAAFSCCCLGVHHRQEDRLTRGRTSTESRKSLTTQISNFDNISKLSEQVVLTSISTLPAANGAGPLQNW
Format: cell-based
Description: To obtain a cell clone stably expressing human orexin type 2 receptor, human orexin type 2 receptor cDNA was inserted into pcDNA3.1(+) plasmid vector (Invitrogen), and a plasmid DNA for expression of human orexin type 2 receptor (pcDNA3.1(+)/hOX2R) was cloned. The plasmid DNA was introduced into CHO-dhfr cell by an electroporation method, and human orexin type 2 receptor expressing clone cells were obtained by limiting dilution method by using G418 drug resistance as a selection marker.
CHO cells forcibly expressing human OX2 receptor were seeded in each well of 384 well black transparent bottom plate (BD Falcon) at 7,500 cells/well, and cultured for one day in a 5% CO2 incubator at 37° C. After removal of the medium in the cell plate, assay buffer A containing a calcium indicator (HBSS (Thermo Fisher Scientific), 20 mM HEPES (Thermo Fisher Scientific), 0.1% BSA (Wako Pure Chemical Industries, Ltd. or Sigma-Aldrich), 2.5 μg/mL Fluo-4 AM (DOJINDO Chemical), 0.08% Pluronic F127 (DOJINDO Chemical), 1.25 mM probenecid (DOJINDO Chemical)) was added at 30 μL/well. The plate was stood for 30 min in a 5% CO2 incubator at 37° C., and further stood at room temperature for 30 min. A test compound prepared by diluting with assay buffer B (HBSS, 20 mM HEPES, 0.1% BSA) was added at 10 μL/well, and the fluorescence value was measured by FDSSμCELL (Hamamatsu Photonics K.K.) every one sec for 1 min, and thereafter every two sec for 1 min 40 sec. The activity (%) of the test compound was calculated assuming that variation in the fluorescence value when DMSO was added instead of the test compound was 0%, and variation in the fluorescence value when orexin A (human) (PEPTIDE INSTITUTE, INC.) was added at the final concentration of 10 nM was 100%.

| SMILES | OX2R agonist activity (3 μM, %) [%] |
| --- | --- |
| CCNC(=O)N1CCC[C@H](NS(C)(=O)=O)[C@@H]1Cc1cccc(Cc2ccccc2)c1 (relative stereo) [Example 1, cis-2-(3-benzylbenzyl)-N-ethyl-3-((methylsulfonyl)amino)piperidine-1-carboxamide] | 81 |
| CCNC(=O)N1CCC[C@H](NS(C)(=O)=O)[C@@H]1Cc1cccc(Cc2cccc(C)c2)c1 (relative stereo) [Example 2, cis-N-ethyl-2-(3-(3-methylbenzyl)benzyl)-3-((methylsulfonyl)amino)piperidine-1-carboxamide] | 90 |
| CCNC(=O)N1CCC[C@H](NS(C)(=O)=O)[C@@H]1Cc1cccc(-c2ccccc2)c1 (relative stereo) [Example 3, cis-2-(biphenyl-3-ylmethyl)-N-ethyl-3-((methylsulfonyl)amino)piperidine-1-carboxamide] | 101 |
| CCNC(=O)N1CCC[C@H](NS(C)(=O)=O)[C@@H]1Cc1cccc(OC2CCCCC2)c1 (relative stereo) [Example 7, cis-2-(3-(cyclohexyloxy)benzyl)-N-ethyl-3-((methylsulfonyl)amino)piperidine-1-carboxamide] | 62 |
| CCNC(=O)N1CCC[C@H](NS(C)(=O)=O)[C@@H]1Cc1cccc(Oc2ccccc2)c1 (relative stereo) [Example 10, cis-N-ethyl-3-((methylsulfonyl)amino)-2-(3-phenoxybenzyl)piperidine-1-carboxamide] | 91 |
| COC(=O)N1CCC[C@H](NS(C)(=O)=O)[C@@H]1Cc1cccc(-c2ccccc2)c1 (relative stereo) [Example 11, methyl cis-2-(biphenyl-3-ylmethyl)-3-((methylsulfonyl)amino)piperidine-1-carboxylate] | 80 |
| COC(=O)N1CCC[C@H](NS(C)(=O)=O)[C@@H]1Cc1cccc(-c2cccc(F)c2)c1 (relative stereo) [Example 14, methyl cis-2-((3′-fluorobiphenyl-3-yl)methyl)-3-((methylsulfonyl)amino)piperidine-1-carboxylate] | 82 |
| CCNC(=O)N1CCC[C@H](NS(C)(=O)=O)[C@@H]1Cc1cccc(O[Si](C(C)C)(C(C)C)C(C)C)c1 (relative stereo) [Example 17, cis-N-ethyl-3-((methylsulfonyl)amino)-2-(3-((triisopropylsilyl)oxy)benzyl)piperidine-1-carboxamide] | 29 |
| CC(=O)N1CCC[C@H](NS(C)(=O)=O)[C@@H]1Cc1cccc(-c2ccccc2)c1 (relative stereo) [Example 22, N-(cis-1-acetyl-2-(biphenyl-3-ylmethyl)piperidin-3-yl)methanesulfonamide] | 60 |
| COC(=O)N1CCC[C@H](NS(C)(=O)=O)[C@@H]1Cc1cccc(N2CCCC2)c1 (relative stereo) [Example 27, methyl cis-3-((methylsulfonyl)amino)-2-(3-(pyrrolidin-1-yl)benzyl)piperidine-1-carboxylate] | 66 |
| CCOC(=O)N1CCC[C@H](NS(C)(=O)=O)[C@@H]1Cc1cccc(-c2ccccc2)c1 (relative stereo) [Example 29, ethyl cis-2-(biphenyl-3-ylmethyl)-3-((methylsulfonyl)amino)piperidine-1-carboxylate] | 98 |
| CCNC(=O)N1CCC[C@H](NS(C)(=O)=O)[C@@H]1Cc1cccc(-c2ccc(C(F)(F)F)cc2)c1 (relative stereo) [Example 35, cis-N-ethyl-3-((methylsulfonyl)amino)-2-((4′-(trifluoromethyl)biphenyl-3-yl)methyl)piperidine-1-carboxamide] | 41 |
| CCOC(=O)N1CCC[C@H](NS(C)(=O)=O)[C@@H]1Cc1cccc(-c2ccccc2)n1 (relative stereo) [Example 38, ethyl cis-3-((methylsulfonyl)amino)-2-((6-phenylpyridin-2-yl)methyl)piperidine-1-carboxylate] | 75 |
